Measurements published in US8987309B2, “Compounds, pharmaceutical compositions and methods of use of 2-aryl pyridylazoles” (The Translational Genomics Research Institute, priority 2009, dated 2015).
“Also recorded” adds a separate entry of the source.

Columns and labels:
A498 = test: IC50 in tumor cell lines (A498); assay type: cell-based; conditions: Table 2; kidney tumor cell line A498
Protocol: (§1) Cytotoxicity Assays. Cytotoxicity assays in the mechanism of action studies were performed according to Mosmann (1983), wherein the activity of mitochondrial reductases were measured using 3-(4,5-dimethylthiozol-3-yl)-2,5-diphenyltetrozolium bromide dye. In brief, cells were seeded in 96-well plates and incubated for various times at 37° C. Inhibition of cell growth was measured by adding 3-(4,5-dimethylthiozol-3-yl)-2,5-diphenyltetrozolium bromide dye, and after an additional 4 h of incubation at 37° C., the 96-well plates were centrifuged, and the culture supernatant was removed. DMSO was added to each well to solubilize the formazan crystals, and the optical density was read at 540 nm on a Quant Spectrophotometer (BioTek Instruments, Winooski, Vt.). Cell growth inhibition data are expressed as percentage of survival compared with untreated cells. The IC50 is defined as the drug concentration required to produce 50% growth inhibition. Results are mean S.E.M. (n 3).

[1] = Storage stability by LC-MS; assay type: physicochemical
Protocol: Stability Studies. LC-MS was used to evaluate the stability of DPC-046 kept at −20° C. or at 22° C., unprotected from light. After 2 years of storage, there was a measurable (8.6%) loss of parent compound when stored at −20° C. in the dark and a 43.6% loss at 22° C. in light.

DU145 = test: IC50 in tumor cell lines (DU145); assay type: cell-based; conditions: Table 1; prostate tumor cell line DU145
Protocol: as §1

[2] = tested on: synthesis of DNA, RNA, or protein; test: Measurement of macromolecular synthesis (radiolabeled precursors); assay type: cell-based
Protocol: Measurement of Macromolecular Synthesis. Radiolabeled precursors of DNA ([^3H]thymidine) and protein ([^14C]valine) were obtained from GE Healthcare (Piscataway, N.J.). The RNA precursor [^3H]uridine was obtained from MP Biomedical (Irvine, Calif.). In brief, cells were plated in 96-well plates and allowed to adhere before adding DPC-046 for 24 to 72 h. Radiolabeled precursors ([…] for thymidine and uridine, and 0.05 µCi/well for valine) were added and allowed to incorporate for 6 h at 37° C. Cells were harvested onto Unifilter-96 GF/B filterplates using a Packard Filtermate 96-well harvester and counted using a Packard Top Count NXT 96-well scintillation counter (PerkinElmer Life and Analytical Sciences, Boston, Mass.).

SK-OV-3 = test: IC50 in tumor cell lines (SK-OV-3); assay type: cell-based; conditions: Table 2; ovarian tumor cell line SK-OV-3
Protocol: as §1

PIM-1 [3] = target: T1, PIM-1 (Homo sapiens, UniProt P11309); test: Follow-up kinase screening and IC50 (SignalChem), PIM-1; assay type: biochemical; design: assay run by SignalChem Pharmaceuticals, Inc. (Richmond, BC, Canada)
T1 sequence (P11309 whole entry): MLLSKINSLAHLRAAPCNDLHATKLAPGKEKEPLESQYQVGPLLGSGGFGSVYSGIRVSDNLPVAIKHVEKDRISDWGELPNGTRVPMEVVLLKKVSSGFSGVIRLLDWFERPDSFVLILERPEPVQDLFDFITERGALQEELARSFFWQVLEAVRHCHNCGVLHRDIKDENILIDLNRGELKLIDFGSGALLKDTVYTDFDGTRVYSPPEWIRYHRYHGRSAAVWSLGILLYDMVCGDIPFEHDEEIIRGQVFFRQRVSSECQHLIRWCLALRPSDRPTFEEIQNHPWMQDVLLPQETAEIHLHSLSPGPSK

Caki-1 = test: IC50 in tumor cell lines (Caki-1); assay type: cell-based; conditions: Table 2; kidney tumor cell line Caki-1
Protocol: as §1

OVCAR3 = test: IC50 in tumor cell lines (OVCAR3); assay type: cell-based; conditions: Table 2; ovarian tumor cell line OVCAR3
Protocol: as §1

PIM-1 [4] = target: T1, PIM-1; test: Initial kinase screening (Amphora), PIM-1; assay type: biochemical; design: assay run by Amphora Discovery Corporation (Durham, N.C.); conditions: 10 μM compound
Protocol: Kinase Screening. Initial kinase screening was performed by Amphora Discovery Corporation (Durham, N.C.).

A549 = test: IC50 in tumor cell lines (A549); assay type: cell-based; conditions: lung tumor cell line A549
Protocol: as §1

[5] = tested on: BxPC3 DPC-4(+/+) and BxPC3 DPC-4(−/−) cells; test: Cytotoxicity (96-h MTT) in isogenic BxPC3 cell lines; assay type: cell-based, Human; conditions: BxPC3 cell lines
Protocol: Cell lines and Culture Conditions. Human pancreatic cancer cell lines MiaPaCa-2 (Yunis et al., 1977), Panc-1 (Lieber et al., 1975), and BxPC3 (Tan et al., 1986) were purchased from the American Type Culture Collection (Manassas, Va.) and cultured in a humidified incubator at 37° C., 5% CO2, in RPMI 1640 medium (CellGro, Manassas, Va.) supplemented with 10% heat-inactivated bovine calf serum, 2 mM L-glutamine, 100 U/ml penicillin, and 100 µg/ml streptomycin (Invitrogen, Carlsbad, Calif.). MiaPaCa-2 (CRL-1420) is an adherent epithelial human pancreatic cancer cell line with a doubling time of approximately 40 h (Yunis et al., 1977). Panc-1 (CRL-1469) is an undifferentiated human pancreatic epithelial cell line with a doubling time of approximately 52 h (Lieber et al., 1975). The BxPC3 cell line DPC-4(−/−) and its isogenic restored wild-type DPC-4(+/+) cell line were developed and cultured as described previously (Wang et al., 2006). In brief, a DPC-4-expressing construct (pMSCVneoDPC-4) was created by amplifying full-length cDNA of DPC-4 using reverse transcriptase-PCR and subcloning into the multiple cloning site of a retroviral vector (pMSCVneo). The DPC-4-expressing construct was cotransfected into the BxPC3 DPC-4(−/−) cells using a packaging cell line, resulting in a cell line that constitutively expresses DPC-4. The expression of DPC-4 was confirmed by Western blotting (Wang et al., 2006).
as §1
Mean±S.E.M., n=3. […] Mean±S.E.M., n=3. […] Mean tumor burden is shown.

MCF7 = test: IC50 in tumor cell lines (MCF7); assay type: cell-based; conditions: Table 2; breast tumor cell line MCF7
Protocol: as §1

[6] = Pharmacokinetic study, single intravenous dose; assay type: in vivo, SCID mice; conditions: single intravenous 88 mg/kg
Protocol: Pharmacokinetic Studies. The pharmacokinetics of DPC-046 in nontumor bearing SCID mice was determined after intravenous administration of a single dose of 88 mg/kg. Plasma samples were collected at 0, 1, 5, 15, 30, 60, 90, 120, 240, 480, 960, and 1440 min after dosing. Plasma DPC-046 concentrations were analyzed by reversed-phase chromatography and tandem mass spectrometry. In brief, mouse plasma was mixed with 99 volumes of acetonitrile, and an aliquot of the supernatant was injected onto the LC-MS. The LC-MS analysis was performed on a ThermoFinnigan Quantum Ultra triple quadrupole mass spectrometer (Thermo Fisher Scientific, Waltham, Mass.) in tandem with a Surveyor LC system. […] Data are mean±S.E.M. (n=3).

## COc1ccc(-c2cnc(-c3ccncc3-c3cccc(OC)c3)o2)cc1 [DPC046]
A498
  IC50: 0.014 µM
[1]; 2 years of storage at 22° C. in light
  loss of parent compound: 43.6%
[1]; 2 years of storage at −20° C. in the dark
  loss of parent compound: 8.6%
DU145
  IC50: 0.027 µM
[2]; 24 to 72 h
  selectivity of inhibition of DNA, RNA or protein synthesis (in words): no selective inhibition
[2]; DNA, RNA, protein, average, at 72 h, read-out: IC50 for inhibition of synthesis of each macromolecule
  IC50: ~3 µM
SK-OV-3
  IC50: 0.017 µM
PIM-1 [3]; 25 μM DPC-046, follow-up screen
  inhibition of PIM-1: more than 70%
PIM-1 [3]; eight-point concentration range 10 nM to 50 μM
  IC50: 19.1 µM
PIM-1 [3]; highest concentration tested (50 μM)
  inhibition of PIM-1: 84%
Caki-1
  IC50: 0.013 µM
OVCAR3
  IC50: 0.013 µM
PIM-1 [4]
  inhibition of PIM-1: 50%
A549; Table 1
  IC50: 0.022 µM
A549; Table 2
  IC50: 0.022 µM
[5]; listed as DPC-046
  potency against BxPC3 cell lines (in words): most potent; also recorded: greatest cytotoxicity
[5]; listed as PC-046
  potency against BxPC3 cell lines (in words): high potency
MCF7
  IC50: 0.011 µM
[6]; mice
  apparent volume of distribution: 135.2 L/kg
  clearance: 248 mL/min/kg
[6]; mice, 24 h
  mean (S.D.) plasma concentration at last sampling time: 0.226 (0.104) μM
[6]; mice, first sampling time (1 min)
  mean (S.D.) peak plasma concentration: 10.8 (4.26) μM
[6]; mouse plasma
  monoexponential half-life: 7.5 h
